“And” between values parts separate entries of the source, which are not always exact repeats. Equal entries are not always repeated.
How the values were obtained:
[1] = system: alkaline phosphatase activity in T47D cells; assay: T47D alkaline phosphatase assay (antiprogestin/antagonist mode, in the presence of 1 nM progesterone); assay type: cell-based; details: Homo sapiens, reference antiprogestin, three independent experiments (Exp 1-3), read-out: Estimated IC50
Protocol: 0.1 M Tris-HCl, pH 9.8 containing 4 mM p-nitrophenyl phosphate (Sigma). […] To each well in a 96-well plate (Falcon, Becton Dickinson Labware), 180 μL of diluted cell suspension was added. Twenty μL of reference or test compounds diluted in the culture medium was then added to each well. When testing for progestin antagonist activity, reference antiprogestins or test compounds were added in the presence of 1 nM progesterone. The cells were incubated at 37° C. in a 5% CO2/humidified atmosphere for 24 hours. […] The plates were shaken in a titer plate shaker for 15 minutes. Then 150 μL of assay buffer II was added to each well. […] Square root-transformed data are used for analysis of variance and nonlinear dose response curve fitting for both agonist and antagonist modes. Huber weighting is used to downweight the effects of outliers. EC50 or IC50 values are calculated from the retransformed values.

[2] = system: alkaline phosphatase activity in T47D cells; assay: T47D cytosol alkaline phosphatase assay (progestin/agonist mode); assay type: cell-based; details: Homo sapiens, 24 hours treatment; for Emax: agonist mode, read-out: % Efficacy; for EC50: T47D, 24 h, test compounds
Protocol: 5-(4,4-dimethyl-2-thioxo-1,4-dihydro-2H-3,1-benzoxazin-6-yl)-1-methyl-1H-pyrrole-2-carbothioamide (1) and 5-(4,4-dimethyl-2-oxo-1,4-dihydro-2H-3,1-benzoxazin-6-yl)-1-methyl-1H-pyrrole-2-carbothioamide (2) were tested in a T47D cytosol alkaline phosphatase assay (Table 1). The purpose of this functional assay was to identify progestins or antiprogestins by determining the compound's effect on alkaline phosphatase activity in T47D cells.
(i) Culture Medium: • DMEM:F12 (1:1) (GIBCO, BRL) supplemented with 5% (v/v) charcoal stripped fetal bovine serum (not heat-inactivated), 100 U/mL penicillin, 100 μg/mL streptomycin, and 2 mM the GlutaMax™ reagent (GIBCO, BRL).
(ii) Alkaline Phosphatase Assay Buffer: • I. 0.1 M Tris-HCl, pH 9.8, containing 0.2% the Triton™ reagent X-100 • II. 0.1 M Tris-HCl, pH 9.8 containing 4 mM p-nitrophenyl phosphate (Sigma).
(iii) Cell Culture and Treatment: • Frozen T47D cells were thawed in a 37° C. water bath and diluted to 280,000 cells/mL in culture medium. To each well in a 96-well plate (Falcon, Becton Dickinson Labware), 180 μL of diluted cell suspension was added. Twenty μL of reference or test compounds diluted in the culture medium was then added to each well. When testing for progestin antagonist activity, reference antiprogestins or test compounds were added in the presence of 1 nM progesterone. The cells were incubated at 37° C. in a 5% CO2/humidified atmosphere for 24 hours.
(iv) Alkaline Phosphatase Enzyme Assay: • At the end of treatment, the medium was removed from the plate and 50 μL of assay buffer I was added to each well. The plates were shaken in a titer plate shaker for 15 minutes. Then 150 μL of assay buffer II was added to each well. Optical density measurements were taken at 5 minute intervals for 30 minutes at a test wavelength of 405 nm.
(v) Analysis of Results: • Analysis of dose-response data: For reference and test compounds, a dose response curve is generated for dose (X-axis) vs. the rate of enzyme reaction (slope) (Y-axis). Square root-transformed data are used for analysis of variance and nonlinear dose response curve fitting for both agonist and antagonist modes. Huber weighting is used to downweight the effects of outliers. EC50 or IC50 values are calculated from the retransformed values. JMP software (SAS Institute, Inc.) is used for both one-way analysis of variance and non-linear dose response analyses in both single dose and dose response studies.
(vi) Reference Compounds: • Progesterone and trimegestone are reference progestins and RU486 was the reference antiprogestin. All reference compounds are run in full dose response curves and the EC50 or IC50 values calculated.

[3] = Solubility in dimethylsulfoxide (observation during characterisation); assay type: physicochemical
Protocol: A 5-L round-bottomed flask equipped with a mechanical stirrer and a reflux condenser was charged with the isolated solid (16.5 g) and acetone (2700 mL) was added in portions via the condenser while the suspension was heated to reflux. The reflux condenser was replaced with a regular one and acetone was distilled off. After distilling 2130 mL of acetone, the formed slurry was cooled to room temperature, stirred overnight, and filtered on a sintered-glass funnel to give a dark-yellow, crystalline, sandy solid. The filtered solid was dried at 40° C. in vacuo to give 12.5 g (76% recrystallization yield; 38% total yield) of 5-(4,4-dimethyl-2-thioxo-1,4-dihydro-2H-3,1-benzoxazin-6-yl)-1-methyl-1H-pyrrole-2-carbothioamide. LC purity: 95.94%; 1.65% NSP-989; rrt 0.88. LC-MS: 331 (M^+); impurity 297 (NSP-989). Mp: particles of various shapes; small particles melted 210-215° C.; next 218-220° C.; final melt 223-226° C. IR (KBr, cm^−1): 3375, 3269, 3165, 2211, 1624, 1610, 1540, 1526, 1466, 1370, 1294, 1261, 1186, 1114, 1086, 959, 880, 822, 779. ^1H NMR (DMSO-d6, ppm): 12.28 (s, 1H), 9.22 (s, 1H, S═CNH2), 8.97 (s, 1H, S═CNH2), 7.41 (d, 1H, J=7.05 Hz), 7.40 (s, 1H), 7.12 (d, 1H, J=8.85 Hz), 6.72 (d, 1H, J=3.9 Hz), 6.23 (d, 1H, J=3.9 Hz), 3.83 (s, 3H), 1.68 (s, 6H).

Row | Compound | IC50 [1] | Emax [2] | EC50 [2] | Solubility in dimethylsulfoxide (DMSO) [3]
1 | CC#C[C@]1(O)CC[C@H]2[C@@H]3CCC4=CC(=O)CCC4=C3[C@@H](c3ccc(N(C)C)cc3)C[C@@]21C [RU486] | 0.103 nM and 0.12 nM | – | – | –
2 | Cn1c(C(N)=S)ccc1-c1ccc2c(c1)C(C)(C)OC(=S)N2 [Compound 1, 5-(4,4-dimethyl-2-thioxo-1,4-dihydro-2H-3,1-benzoxazin-6-yl)-1-methyl-1H-pyrrole-2-carbothioamide] | – | 60% | 0.2 nM | sparingly soluble
3 | Cn1c(C(N)=S)ccc1-c1ccc2c(c1)C(C)(C)OC(=O)N2 [Compound 2, 5-(4,4-dimethyl-2-oxo-1,4-dihydro-2H-3,1-benzoxazin-6-yl)-1-methyl-1H-pyrrole-2-carbothioamide] | – | 72% | 1.9 nM | –
